According to patent US20210115040A1, “OGA INHIBITOR COMPOUNDS” (Janssen Pharmaceutica NV, priority 2018, published 2021):

Biological target: T1, recombinant human Meningioma Expressed Antigen 5 (MGEA5), also referred to as O-GlcNAcase (OGA) (Homo sapiens, UniProt O60502)
T1 construct: Full length OGA enzyme was purchased at OriGene (cat #TP322411); purchased OriGene TP322411
T1 sequence (O60502 1-916): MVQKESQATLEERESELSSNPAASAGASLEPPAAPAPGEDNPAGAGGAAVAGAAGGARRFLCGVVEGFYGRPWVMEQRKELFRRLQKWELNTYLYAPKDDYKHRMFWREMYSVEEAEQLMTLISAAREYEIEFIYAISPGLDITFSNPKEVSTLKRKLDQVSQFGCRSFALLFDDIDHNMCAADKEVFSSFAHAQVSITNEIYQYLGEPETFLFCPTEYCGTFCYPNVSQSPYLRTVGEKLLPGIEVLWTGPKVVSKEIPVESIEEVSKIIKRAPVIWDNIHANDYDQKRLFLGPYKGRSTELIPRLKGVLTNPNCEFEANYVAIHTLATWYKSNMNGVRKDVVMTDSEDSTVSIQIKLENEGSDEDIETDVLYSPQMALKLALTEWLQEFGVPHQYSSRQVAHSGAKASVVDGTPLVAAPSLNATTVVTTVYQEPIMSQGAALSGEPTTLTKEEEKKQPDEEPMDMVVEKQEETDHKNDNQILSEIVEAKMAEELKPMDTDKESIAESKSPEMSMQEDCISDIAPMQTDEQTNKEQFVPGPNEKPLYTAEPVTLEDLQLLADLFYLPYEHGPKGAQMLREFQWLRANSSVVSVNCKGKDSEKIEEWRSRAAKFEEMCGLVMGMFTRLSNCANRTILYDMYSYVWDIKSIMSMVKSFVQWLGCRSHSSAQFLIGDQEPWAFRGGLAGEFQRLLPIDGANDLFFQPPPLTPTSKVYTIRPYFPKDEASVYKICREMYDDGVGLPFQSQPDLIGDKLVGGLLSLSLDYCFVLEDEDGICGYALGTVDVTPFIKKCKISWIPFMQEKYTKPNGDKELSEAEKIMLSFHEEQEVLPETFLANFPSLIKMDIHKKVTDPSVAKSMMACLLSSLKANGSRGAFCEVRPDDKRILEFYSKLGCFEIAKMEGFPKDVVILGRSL
Assay: OGA biochemical assay (inhibition of FM-GlcNAc hydrolysis, fluorescence)
Settings: FM-GlcNAc substrate; for IC50: 6 h at room temperature, read-out: Enzymatic hOGA, pIC50 (converted); for Emax: read-out: Enzymatic Emax (%)
Text: The assay is based on the inhibition of the hydrolysis of fluorescein mono-β-D-N-Acetyl-Glucosamine (FM-GlcNAc) (Mariappa et al. 2015, Biochem J 470:255) by the recombinant human Meningioma Expressed Antigen 5 (MGEA5), also referred to as O-GlcNAcase (OGA). The hydrolysis FM-GlcNAc (Marker Gene technologies, cat #M1485) results in the formation of β-D-N-glucosamineacetate and fluorescein. The fluorescence of the latter can be measured at excitation wavelength 485 nm and emission wavelength 538 nm. An increase in enzyme activity results in an increase in fluorescence signal. Full length OGA enzyme was purchased at OriGene (cat #TP322411). The enzyme was stored in 25 mM Tris.HCl, pH 7.3, 100 mM glycine, 10% glycerol at −20° C. Thiamet G and GlcNAcStatin were tested as reference compounds (Yuzwa et al. 2008 Nature Chemical Biology 4:483; Yuzwa et al. 2012 Nature Chemical Biology 8:393). The assay was performed in 200 mM Citrate/phosphate buffer supplemented with 0.005% Tween-20. 35.6 g Na2HPO4 2H2O (Sigma, #C0759) were dissolved in 1 L water to obtain a 200 mM solution. 19.2 g citric acid (Merck, #1.06580) was dissolved in 1 L water to obtain a 100 mM solution. pH of the sodiumphosphate solution was adjusted with the citric acid solution to 7.2. The buffer to stop the reaction consists of a 500 mM Carbonate buffer, pH 11.0. 734 mg FM-GlcNAc were dissolved in 5.48 mL DMSO to obtain a 250 mM solution and was stored at −20° C. OGA was used at a 2 nM concentration and FM-GlcNAc at a 100 uM final concentration. Dilutions were prepared in assay buffer.
50 nl of a compound dissolved in DMSO was dispensed on Black Proxiplate™ 384 Plus Assay plates (Perkin Elmer, #6008269) and 3 μl fl-OGA enzyme mix added subsequently. Plates were pre-incubated for 60 min at room temperature and then 2 μl FM-GlcNAc substrate mix added. […] Plates were briefly centrifuged for 1 min at 1000 rpm and incubate at room temperature for 6 h. To stop the reaction 5 μl STOP buffer were added and plates centrifuge again 1 min at 1000 rpm. Fluorescence was quantified in the Thermo Scientific Fluoroskan Ascent or the PerkinElmer EnVision with excitation wavelength 485 nm and emission wavelength 538 nm.
For analysis a best-fit curve is fitted by a minimum sum of squares method. From this an IC50 value and Hill coefficient was obtained. High control (no inhibitor) and low control (saturating concentrations of standard inhibitor) were used to define the minimum and maximum values.

Row | Structure (SMILES) | IC50 [µM] | Emax (maximal effect) [%] | Enzymatic Emax (%) (maximal effect)
1 | Cc1cc(C[C@H]2CCN(Cc3ccc4nc(C)sc4c3)C2)cc(C)n1 [Compound 55] | > 10 | 18 | 
2 | COc1cc([C@H]2CCCN([C@@H](C)c3cnc4[nH]c(C)nc4c3)C2)cc(C(F)(F)F)n1 [Compound 4b] | 0.501 | 96 | 
3 | Cc1cc(C[C@H]2CCCN(C(C)c3ccc4occc4n3)C2)cc(C)n1 (mixture of isomers) [Compound 38] | 0.126 | 100 | 
4 | Cc1cc(C[C@H]2CCCN(Cc3ccc4oc(C)nc4n3)C2)cc(C)n1 [Compound 36] | 0.0631 | 101 | 
5 | Cc1cc(C2CCCN(C(C)c3cnc4[nH]c(C)nc4c3)C2)cc(C)n1 (stereo not drawn) [Compound 1] | 0.316 | 98 | 
6 | Cc1cc(C[C@H]2CCN(C(C)c3ccc4nc(C)sc4c3)C2)cc(C)n1 (stereo partly drawn) [Compound 56] | > 10 | 41 | 
7 | COc1cc(OC2CCCN(C(C)c3ccc4sc(C)nc4n3)C2)cc(C)n1 (stereo not drawn) [Compound 41] | 0.126 | 101 | 
8 | Cc1cc(C[C@@H]2CCN(C(C)c3ccc4oc(C)nc4n3)C2)cc(C)n1 (mixture of isomers) [Compound 26] | 0.0398 | 101 | 
9 | COc1cc(O[C@@H]2CCN([C@@H](C)c3ccc4oc(C)nc4n3)C2)cc(C)n1 [Compound 21a] | > 10 | 22 | 
10 | Cc1nc2nc(C(C)N3CC[C@H](Cc4cc(F)cc(F)n4)C3)ccc2o1 (stereo partly drawn) [Compound 79] | 0.158 | 99 | 
11 | Cc1cc(C2CCCN(C(C)c3cnc4[nH]c(C)nc4c3)C2)cc(C(F)(F)F)n1 (stereo not drawn) [Compound 3] | 0.316 | 96 | 
12 | Cc1cc(C[C@H]2CCCN(Cc3ccc4cn(C)nc4c3)C2)cc(C)n1 [Compound 17] | 0.794 | 90 | 
13 | Cc1cc(C[C@H]2CCCN([C@@H](C)c3ccc4oc(C)nc4n3)C2)cc(C(F)(F)F)n1 [Compound 24b] | 5.01 | 69 | 
14 | Cc1cc(C2CCCN(C(C)c3cc4nc(C)oc4cc3F)C2)cc(C)n1 (racemic) [Compound 32] | 0.00794 | 99 | 
15 | COc1cc(O[C@@H]2CCN(C(C)c3ccc4oc(C)nc4n3)C2)cc(C)n1 (mixture of isomers) [Compound 21ab] | 0.251 | 97 | 
16 | Cc1cc(C[C@@H]2CCN([C@@H](C)c3cc4nc(C)oc4cc3F)C2)cc(C)n1 (relative stereo) [Compound 33b] | 0.0631 | 101 | 
17 | Cc1cc(C[C@@H]2CCN(C(C)c3cc4nc(C)oc4cc3F)C2)cc(C)n1 (mixture of isomers) [Compound 33ab] | 0.02 | 99 | 
18 | Cc1cc(OC[C@H]2CCCN([C@@H](C)c3ccc4sc(C)nc4n3)C2)cc(C)n1 [Compound 46a] | 0.631 | 96 | 
19 | COc1cc(C[C@@H]2CCN(C(C)c3ccc4oc(C)nc4n3)C2)cc(C)n1 (mixture of isomers) [Compound 28] | 0.1 | 99 | 
20 | COc1cc(C[C@H]2CCCN([C@@H](C)c3ccc4oc(C)nc4n3)C2)cc(C)n1 (relative stereo) [Compound 23b] | 0.2 | 101 | 
21 | Cc1cc(C[C@H]2CCCN(Cc3ccc4[nH]c(C)nc4c3)C2)cc(C)n1 [Compound 10] | 1 | 89 | 
22 | Cc1cc(C[C@@H]2CCN(C(C)c3cnc4[nH]c(C)nc4c3)C2)cc(C)n1 (mixture of isomers) [Compound 7] | 0.0501 | 100 | 
23 | Cc1cc(OC[C@@H]2CCCN([C@H](C)c3ccc4sc(C)nc4n3)C2)cc(C)n1 [Compound 45a] | 0.501 | 95 | 
24 | COc1cc([C@H]2CCCN([C@H](C)c3cnc4[nH]c(C)nc4c3)C2)cc(C(F)(F)F)n1 [Compound 4a] |  | 50 | 
25 | Cc1cc(OC[C@@H]2CCCN(C(C)c3cc4nc(C)oc4cc3F)C2)cc(C)n1 (mixture of isomers) [Compound 35] | 0.1 | 101 | 
26 | Cc1cc(C[C@H]2CCCN(C(C)c3cnc4[nH]c(C)nc4c3)C2)cc(C)n1 (single isomer, unassigned) [Compound 6b] | 0.00794 |  | 100
